According to patent US7223794B2, “Arylheteroalkylamine derivatives and their use as inhibitors of nitric oxide synthase” (AstraZeneca AB, priority 2001, dated 2007):
Counter-ions that a name gives are not always drawn.

Legend:
[1] = tested on: human form of induced nitric oxide synthase; assay: Screen 3: nitrite accumulation (Griess) in cytokine-induced DLD-1 cells; format: cell-based; settings: DLD-1 cells induced with gamma-IFN, TNF-alpha, IL-6, IL-1-beta, 5 hours incubation with compound, read-out: IC50 (inhibition of nitrite accumulation)
Description: The human colorectal carcinoma cell line, DLD-1 (obtained from the European Collection of Animal Cell Culture—cell line number 90102540) was routinely grown in RPMI 1640 supplemented with 10%(v/v) foetal bovine serum, and 2 mM L-glutanmine, at 37° C. in 5% CO2.
Nitric oxide synthase was induced in cells by addition of medium containing human recombinant gamma-IFN (1000 units/ml), TNF-alpha (200 U/ml), IL-6 (200 U/ml) and IL-1-beta (250 U/ml). After incubation for 18 hours at 37° C., the medium was removed and the cells washed with warm phosphate buffered saline. Cells were incubated for a further 5 hours at 37° C./5% CO2 in RPMI 1640 containing 100 μM L-arginine and 100 μM verapamil-HCl in the presence and absence of test compounds.
Nitrite accumulation was determined by mixing an equal volume of culture media with Griess reagent (10 mg/ml sulphanilamide, 1 mg N-(1-naphthyl)ethylenediamine in 1 ml 2.5% (v/v) phosphoric acid). Inhibition in the presence of compounds was calculated relative to the nitrite levels produced by untreated cells. IC50 values were estimated from a semi-log plot of % inhibition versus concentration of compound.

Nitric oxide synthase = target: T1, Nitric oxide synthase (Mus musculus, UniProt P29477); assay: Screen 1: nitric oxide synthase inhibition, 3H-L-arginine to 3H-L-citrulline conversion, lysate of induced J774A-1 cells; format: biochemical, murine; settings: enzyme from LPS/IFNg-induced J774A-1 macrophage lysate; 1 hour at room temperature; read-out: IC50 (concentration of drug substance which gives 50% enzyme inhibition in the assay)
T1 construct: endogenous in cells; host or cells: J774A-1 murine macrophage cell line, induced with LPS and IFNg; crude cell lysate
Description: The activity of compounds of formula (I), or a pharmaceutically acceptable salt thereof, may be screened for nitric oxide synthase inhibiting activity by a procedure based on that of Förstermann et al., Eur. J. Pharm., 1992, 225, 161–165. Nitric oxide synthase converts ^3H-L-arginine into ^3H-L-citrulline which can be separated by cation exchange chromatography and quantified by liquid scintillation counting.
Enzyme is prepared, after induction, from the cultured murine macrophage cell line J774A-1 (obtained from the laboratories of the Imperial Cancer Research Fund). J774A-1 cells are cultured in Dulbeccos Modified Eagles Medium (DMEM) supplemented with 10% foetal bovine serum, 4 mM L-glutamine and antibiotics (100 units/nl penicillin G, […] streptomycin & […] ainphotericin B). Cells are routinely grown in […] flasks containing 35 ml medium kept at 37° C. and in a humidified atmosphere containing 5% CO2. […]
Labelled L-citrulline is separated from labelled L-arginine using Dowex AG-50W. […] After allowing the samples to dry the L-citrulline is quantified by scintillation counting.
In a typical experiment basal activity is 300 dpm per 75 μl sample which is increased to 1900 dpm in the reagent controls. […] Compounds are tested at a range of concentrations and from the inhibitions is obtained IC50 values are calculated. […]

Which IC50 [1] does the source give for `N#Cc1ccc(Cl)cc1SC(CN)c1cccnc1` (stereo not drawn) [Example 11, 2-[[2-Amino-1-(3-pyridinyl)ethyl]thio]-4-chlorobenzonitrile] here?
Its IC50 is < 100 µM.

With `N#Cc1ccc(Cl)cc1S[C@H](CN)c1ccccc1` [Example 4, 2-[[(1S)-2-Amino-1-phenylethyl]thio]-4-chlorobenzonitrile hydrochloride] as the compound, how does the IC50 [1] read?
The IC50 was < 100 µM.

Which IC50 (Nitric oxide synthase) does the source give for `N=C(N)NN` [ainlinoguanidine] here?
Its IC50 is 10 µM.

With `NCC(Sc1cc(Cl)ccc1Cl)c1ccccc1` (stereo not drawn) [Example 3, 2-[(2,5-Dichlorophenyl)thio]-2-phenylethylamine hydrochloride] as the compound, how does the IC50 [1] read?
The IC50 was < 100 µM.

With `N#Cc1ccc(C(F)(F)F)nc1S[C@H](CN)c1ccccc1` [Example 7, 2-[[(1S)-2-Amino-1-phenylethyl]thio]-6-(trifluoromethyl)-3-piridinecarbonitrile] as the compound, how does the IC50 [1] read?
Its IC50 is < 100 µM.

Which IC50 [1] does the source give for `COc1ccc(C#N)c(S[C@H](CN)c2ccccc2)c1` [Example 8, 2-[[(1S)-2-Amino-1-phenylethyl]thio]-4-methoxybenzonitrile hydrochloride] here?
Its IC50 is < 100 µM.

Which IC50 [1] does the source give for `CNC[C@@H](Sc1cc(Cl)ccc1C#N)c1ccccc1` [Example 9, 4-Chloro-2-[[(1S)-2-(methylamino)-1-phenylethyl]thio]benzonitrile hydrochloride] here?
The IC50 was < 100 µM.

Which IC50 [1] does the source give for `Cc1ccc(C#N)c(S[C@H](CN)c2ccccc2)n1` [Example 2, 2-[[(1S)-2-Amino-1-phenylethyl]thio]-6-methyl-3-pyridinecarbonitrile hydrochloride] here?
The IC50 was < 100 µM.

Which results are given for `CC(=N)NCC(Oc1cc(Cl)c(F)cc1C#N)c1ccccc1.Cl` (stereo not drawn) [Example 5, N-[2-(5-Chloro-2-cyano-4-fluorophenoxy)-2-phenylethyl]-ethanimidamide hydrochloride]?
melting point: 133 to 135 °C; IC50 [1]: < 100 µM

For `N#Cc1cc(F)c(Cl)cc1O[C@H](CN)c1ccon1` [Example 10, 2-[[(1R)-2-Amino-1-(3-isoxazolyl)ethyl]oxy]-4-chloro-5-fluorobenzonitrile ethanedioate], which IC50 [1] is on record?
Its IC50 is < 100 µM.

Which IC50 [1] does the source give for `N#Cc1cc(F)c(Cl)cc1O[C@H](CN)c1ccccc1` [Example 1, 2-[[(1S)-2-Amino-1-phenylethyl]oxy]-4-chloro-5-fluorobenzonitrile (E)-butenedioate] here?
Its IC50 is < 100 µM.
